# From US20240139206A1, “METHODS OF TREATMENT” (Kinoxis Therapeutics Pty Ltd, priority 2021, published 2024)
# Entries after “also recorded” stand apart in the source; their conditions may differ.
# Columns and labels:
# Assay type in all cases: in vivo
# [1] = test system: single housed hyper-aggressive male Swiss mice; assay: Isolation-induced aggression model, two mouse social interaction test; conditions: for increased time spent fighting in single housed mice: 10-minute test
# Text: This model has been chosen as it is considered to have excellent predictive validity toward human aggression and face validity for modelling offensive impulsive aggression in human aggression and it leads specifically to alterations in aggressive behaviour without confounding changes in other behaviours.
# Eighty male Swiss mice (ARC, Perth, Australia) aged 6-7 weeks upon arrival were used for objectives (1) and (3) in this study, 30 mice of the same age and strain were used for objective (2). Subjects were housed four per cage in a temperature-controlled colony room (22° C.±1° C.) under standard laboratory conditions (12-hour light/dark cycle; light phase 0700-1900 hours) upon arrival. Mice were housed in standard IVC cages. Mice had ad libitum access to food and water in their home cages. All experiments were performed during the light phase. All experimental procedures were approved by University of Sydney Animal Ethics Committee.
# After allowing 1 week for acclimatisation, n=64 mice were rendered hyper-aggressive by moving them into single housing, whereas n=16 animals were housed in groups of four. During this time, all mice were weighed at least once per week. One week prior to the commencement of testing mice were given habituation injections with saline (0.9%, 10 mL/kg) to reduce the potential confounding stress and anxiety from injections during testing.
# Testing commenced from 6 weeks post-isolation. All experiments were conducted in testing arenas constructed from acrylic, with matte blue internal walls and floor (400 mm×400 mm×400 mm). The lighting at the centre of the arenas during testing was <10 lux. Prior to each test, one mouse in each pair was marked on its back with a non-toxic green marker, this allowed the automated behavioural tracking software to distinguish between the two mice (see below). On test days, weight and condition matched pairs of unfamiliar mice were administered their drug treatment(s) as described below and were then placed into the testing arena together for a 10 min test session (Examples 2 and 4) or a 5 minute test session (Example 3).
# Drugs were administered either via intraperitoneal (i.p.) injection (injection volume 10 ml/kg) or administered orally (as indicated). The testing arenas were cleaned between sessions with ethanol (80%) and F10 disinfectant to eliminate residual odours.
# KNX100 2HCL (Wuxi Apptech, Hong Kong, China) was dissolved in saline (0.9%).
# A 5 group between-subjects design was utilised. 15 min prior to testing, group-housed mice received vehicle treatment (VEHg) and single housed mice received one of four different doses of KNX100 (0 aka VEHs, 2.5, 5 or 10 mg/kg). The sample size in each group was as follows: group housed (n=12); singled housed administered KNX100 dose 0 (n=14), […] (n=16), […] (n=18), and 10 (n=16) mg/kg, for i.p. administration.
# For oral dosing, mice were similarly grouped, and 20 mg/kg KNX100 in saline or vehicle (saline) were administered by oral gavage with n=10 mice per group.
# A 4 group between-subjects design was utilised.
# The behaviours of interest were: (1) time (in seconds) spent fighting; (2) time (in seconds) spent huddling (defined as the mice being in close physical contact with each other while stationary); (3) time (in seconds) spent grooming themselves; and (4) distance travelled (in mm) by each mouse during the experimental session.
# Experimental sessions were recorded with an overhead camera using CaptureStar (Version 1.00, CleverSys, Virginia, USA). The behaviours detailed above were automatically quantified from the videos using the behavioural tracking software TopScan, SocialScan and AggressionScan (CleverSys, Virginia, USA). Data were analysed using SPSS (Version 24.0, IBM, USA). Data were analysed with a one-way ANOVA and planned contrasts. Significance was set at p≤0.05.
# This study used the same model and testing procedure for the two-mouse social interaction test as described in Example 1, and using a phosphate salt form of KNX100.
# [2] = test system: APP/PS1 mice; assay: Resident-Intruder (RI) test in Alzheimer's disease aggression mouse model; conditions: for number (frequency) of attacks on the intruder mouse vs vehicle-treated APP/PS1 mice: KNX100 phosphate salt 2.5, 5 or 10 mg/kg freebase equivalent IP 15 min prior, risperidone 0.05 mg/kg IP 30 min prior, 5-minute session
# Text: Male APP/PS1 and WT mice (˜3 months of age) were used to assess the effect of KNX100 on aggression in a mouse model of Alzheimer's Disease.
# APP/PS1 are double transgenic mice expressing a chimeric mouse/human amyloid precursor protein (APP) and presenilin (PS1).
# Male C57BL/6J mice were purchased from Jackson Laboratory at 7-8 weeks of age and were used as the intruders in this study. The APP/PS1 mice and wild-type control mice were single-housed and C57BL/6J mice were group-housed (4 per cage) in a light-controlled environment (12/12 light/dark cycle) with access to food and water ad libitum. Tests were performed during the animal's light cycle.
# The test compound, KNX100 was provided in its phosphate salt form. Doses of 2.5, 5, and 10 mg/kg freebase equivalent were dissolved in saline and injected IP, at a dose volume of 10 ml/kg, 15 minutes prior to the test.
# Briefly, all mice were acclimated to red-light conditions for 60 minutes prior to testing. During the RI test, an unfamiliar intruder C57BL/6J mouse was placed directly into the home cage of the APP/PS1 resident mouse for 300 seconds. During the 5-minute session, the latency time to attack (attack was defined at a bite), and the total number (frequency) of attacks, were recorded manually by an experimenter blinded to the treatment groups. Immediately after testing, mice were separated, and the intruder mouse was placed back into his home cage. All mice that were wounded were treated according to IACUC guidelines.
# One week after the pre-screen RI session, AD resident mice were administered vehicle, test compound, or risperidone. The RI test session was performed as described above following the appropriate pretreatment time.
# Body weights were recorded at each time point as specified above. For aggression, the latency to attack and the total number of attacks were recorded.
# Data were analyzed by analysis of variance (ANOVA) followed by post-hoc comparisons when appropriate. An effect was considered significant if p<0.05. Data are presented as the mean±standard error of the mean (SEM).
# [3] = test system: 6-OHDA lesion mice; assay: Social interaction test in neonatal 6-OHDA lesion mouse model of ADHD; conditions: KNX100 phosphate 1.845-7.38 mg/kg freebase equivalent i.p. or 3.75-15 mg/kg p.o.
# Text: Increased aggression is commonly observed in patients with ADHD. This increased aggression is also observed in several animal models of ADHD. One such model is the neonatal 6-hydroxydopamine (6-OHDA) lesion mouse model.
# Briefly, intracerebroventricular infusion of 6-OHDA into brains of mice around postnatal day 5 results in a biological ADHD phenotype (e.g. dopamine depletion) and a behavioural phenotype (e.g. hyperactivity, impaired attention, impulsivity, aggression, and learning and memory deficits) in the majority of mice from postweaning onwards.
# Five primary experimental conditions of interest are investigated: • Sham lesion mice treated with vehicle • 6-OHDA lesion mice treated with vehicle • 6-OHDA lesion mice treated with 1.845 mg/kg freebase equivalent KNX100 phosphate i.p. or 3.75 mg/kg p.o. • 6-OHDA lesion mice treated with 3.69 mg/kg freebase equivalent KNX100 phosphate i.p. or 7.5 mg/kg p.o. • 6-OHDA lesion mice treated with 7.38 mg/kg freebase equivalent KNX100 phosphate i.p. or 15 mg/kg p.o.
# During adolescence, mice undergo a social interaction test to test the effects of KNX100 on increased aggression the ADHD model mice (6-OHDA lesion mice) compared to the control mice (sham lesion mice). […] The behaviours of the control or ADHD model mouse are assessed and include the total time spent fighting, the total number of fights, and the latency to the first fight.
# [4] = Example 4: 0.1 mg/kg risperidone (30 min prior) or 10 mg/kg KNX100 dihydrochloride salt (15 min prior), 10 min test
# [5] = Example 4: 0.1 mg/kg risperidone or 10 mg/kg KNX100 dihydrochloride salt
# [6] = Example 4: 10 mg/kg KNX100 vs 0.1 mg/kg risperidone
# [7] = KNX100 dihydrochloride salt 20 mg/kg p.o. 30 min prior, 5 min test
# [8] = KNX100 dihydrochloride salt 2.5, 5 or 10 mg/kg i.p., single housed mice, linear trend for dose
# [9] = acute KNX100 phosphate salt 15 mg/kg freebase equivalent p.o.
# [10] = subchronic KNX100 phosphate salt 15 mg/kg freebase equivalent p.o. once daily 7 days
structure (smiles),measurement,setting,value
Cn1ncc2c1Nc1ccccc1NC2 [KNX100],time spent fighting vs vehicle treated single housed mice,[1]; [4],spent less time fighting; also recorded: significantly inhibited fighting
same,distance travelled vs vehicle treated single housed mice,[1]; [5],travelled significantly less distance; also recorded: significantly reduced distance travelled
same,time spent fighting vs vehicle treated group housed mice,[1]; [5],spent less time fighting
same,time spent huddling vs vehicle treated single housed mice,[1]; [5],spent significantly more time huddling; also recorded: increased huddling
same,"distance travelled / locomotor activity, risperidone compared with KNX100",[1]; Example 4: 0.1 mg/kg risperidone vs 10 mg/kg KNX100,significantly less suppression of locomotor activity
same,time spent grooming vs vehicle treated group housed mice,[1]; Example 4: 10 mg/kg KNX100 dihydrochloride salt,did not differ significantly from vehicle treated group housed mice in time spent grooming
same,"time spent fighting / inhibition of aggression, KNX100 compared with risperidone",[1]; [6],no significant difference in time spent fighting; also recorded: at least equivalent inhibition of aggression to risperidone
same,"time spent grooming, KNX100 compared with risperidone",[1]; [6],no significant different in time spent grooming
same,"time spent huddling, KNX100 compared with risperidone",[1]; [6],no significant difference in time spent huddling
same,time spent fighting vs vehicle treated group housed mice,[1]; [7],did not differ significantly in time spent fighting compared to vehicle treated group housed mice; also recorded: did not differ significantly in time spent fighting relative to the group housed mice
same,time spent fighting vs vehicle treated single housed mice,[1]; [7],spent significantly less time fighting than the single housed vehicle treated mice
same,distance travelled relative to the group housed mice,"[1]; KNX100 dihydrochloride salt 2.5, 5, 10 mg/kg i.p., vs vehicle treated group housed mice",none of the doses of KNX100 resulted in a significant difference in distance travelled
same,time spent fighting,"[1]; KNX100 dihydrochloride salt 2.5, 5 or 10 mg/kg i.p. 15 min prior, single housed mice, linear trend for dose, 10 min test",dose dependently inhibited induced aggression; also recorded: dose dependently inhibited fighting
same,distance travelled,[1]; [8],dose dependently decreased distance travelled; also recorded: dose dependently inhibited
same,time spent huddling,[1]; [8],dose dependently increased time spent in this form of close physical contact; also recorded: dose dependently increased huddling
same,time spent self-grooming,[1]; [8],dose dependently increased time spent self-grooming
same,"efficacy of subchronic compared with acute KNX100 (duration spent fighting, number of fights, latency to first fight)",[1]; KNX100 phosphate salt 15 mg/kg freebase equivalent p.o.,no significant difference in efficacy; also recorded: maintains full efficacy at reducing aggressive behaviour after repeated dosing; also recorded: equally efficacious
same,greater number of fights in single housed mice,[1]; [9],prevented
same,reduced latency to first fight in single housed mice,[1]; [9],prevented
same,increased time spent fighting in single housed mice,"[1]; acute KNX100 phosphate salt 15 mg/kg freebase equivalent p.o. on day 7, 30 min prior",prevented the increased time spent fighting
same,greater number of fights in single housed mice,[1]; [10],prevented
same,reduced latency to first fight in single housed mice,[1]; [10],prevented
same,increased time spent fighting in single housed mice,[1]; [10],prevented the increased time spent fighting
same,latency to attack the intruder mouse vs vehicle-treated APP/PS1 mice,[2]; KNX100 phosphate salt 10 mg/kg freebase equivalent IP,showed a trend to increasing the latency to attack; also recorded: tended to increase the latency to attack intruders
same,number (frequency) of attacks on the intruder mouse vs vehicle-treated APP/PS1 mice,[2],decreased the number of attacks; also recorded: robustly reduced the number of aggressive attacks
same,"total time spent fighting, total number of fights, latency to the first fight",[3],"is shown to inhibit fighting incidents, duration of fighting, and latency to first attack"
"Cc1nc2n(c(=O)c1CCN1CCC(c3noc4cc(F)ccc34)CC1)CCCC2 [risperidone, reference compound]",time spent fighting vs vehicle treated single housed mice,[1]; [4],spent less time fighting; also recorded: significantly inhibited fighting
same,time spent fighting vs vehicle treated group housed mice,[1]; [5],spent less time fighting
same,time spent huddling vs vehicle treated single housed mice,[1]; [5],spent significantly more time huddling; also recorded: increased huddling
same,time spent grooming vs vehicle treated single housed mice,"[1]; Example 4: 0.1 mg/kg risperidone, 0.1 mg/kg",spent significantly more time grooming; also recorded: significantly increased time spent grooming
same,number (frequency) of attacks on the intruder mouse vs vehicle-treated APP/PS1 mice,[2],decreased the number of attacks
